# Patent publication US11345673B2, “1-phenylpropanone compounds and use thereof” (UNIVERSITA' DEGLI STUDI DI PADOVA, priority 2016, dated 2022)
# How the values were obtained:
# [1] = system: breast cancer (MDA-MB-231) cells; experiment: Proapoptotic effect by flow cytofluorometry, MDA-MB-231 cells; format: cell-based; conditions: Homo sapiens, 24 hours incubation, three experiments in triplicate, read-out: IC50 ± S.D. (concentration required to cause 50% apoptosis), MDA-MB-231
# Text: (§1) Flow cytofluorometry was used to evaluate the ability of some compounds of the invention to induce cell death, with particular reference to apoptosis. This latter phenomenon is characterized by morphological modification of the plasmatic membrane as a result of the translocation of the phospholipid phosphatidylserine (PS) in the plasmatic membrane from the cytoplasmic side to the outer surface of the cell. […] Annexin is detected because it is conjugated to a specific fluorochrome, thus allowing to distinguish apoptosis from necrotic phenomena, which are instead measured by the fluorescent dye propidium iodide, which penetrates freely in the cell having a damaged plasmatic membrane.
# (§2) Both primary lymphocytic tumor cells taken from patients with chronic lymphatic leukemia (LLC) and humanized cell lines of neuroblastoma (SK-N-BE), hepatocarcinoma (HepG2 and HUH7.5) and breast cancer (MDA-MB-231) were used.
# (§3) HepG2 (2×10^5 cells per well), HUH7.5 and MDA-MB-231 (1.5×10^5 cells per well) cells were seeded on a 6-well plate in Dulbecco's Modified Eagle Medium (DMEM), 10% FBS and cultured at 37° C. in a 5% CO2 atmosphere. After 24 hours, the medium was removed and replaced by DMEM containing the test compounds, previously dissolved in 100% dimethylsulfoxide, and diluted such that the final concentration of the same in cell incubation solutions was 0.5% (v/v). After 30 minutes incubation, 10% FBS was added, and the cells were incubated for 24 hours, then detached with trypsin, and analyzed by cytofluorimeter. LLC cells (1×10^6 cells per well) were seeded and cultured on 12-well plates in RPMI-1640 medium, 10% FBS, at 37° C. in a humified atmosphere containing 5% CO2. To this medium, test compounds were added, and incubation was carried out for 24 hours, after which time the cells were analyzed by cytofluorimeter.
# (§4) The results obtained by cytofluorometry from three separate experiments executed in triplicate were tabulated, estimating the concentration required to cause 50% apoptosis (IC50), and standard deviation.
# [2] = system: neuroblastoma (SK-N-BE) cells; experiment: Proapoptotic effect by flow cytofluorometry, SK-N-BE cells; format: cell-based; conditions: Homo sapiens, three experiments in triplicate, read-out: IC50 ± S.D. (concentration required to cause 50% apoptosis), SK-N-BE
# Text: as §1
# Both primary lymphocytic tumor cells taken from patients with chronic lymphatic leukemia (LLC) and humanized cell lines of neuroblastoma (SK-N-BE), hepatocarcinoma (HepG2 and HUH7.5) and breast cancer (MDA-MB-231) were used. […]
# as §4
# [3] = system: hepatocarcinoma (HUH7.5) cells; experiment: Proapoptotic effect by flow cytofluorometry, HUH7.5 cells; format: cell-based; conditions: Homo sapiens, 24 hours incubation, three experiments in triplicate, read-out: IC50 ± S.D. (concentration required to cause 50% apoptosis), HUH7.5
# Text: as §1, §2, §3, §4
# [4] = system: primary lymphocytic tumor cells taken from patients with chronic lymphatic leukemia (LLC); experiment: Proapoptotic effect by annexin V/propidium iodide flow cytofluorometry, LLC cells; format: cell-based; conditions: Homo sapiens, 24 hours incubation, three experiments in triplicate, read-out: IC50 ± S.D. (concentration required to cause 50% apoptosis), LLC
# Text: as §1, §2, §3
# Leukemic lymphocytes were isolated, following heparinized venous withdrawal from peripheral blood of LLC patients, diluted with saline in a 1:3 ratio, layered on a Ficoll/Hypaque (F/H) density gradient, centrifuged at 900 rpm for 20 minutes, at 20° C. without brakes. Mononuclear cells and platelets, concentrating on top of the F/H gradient, were separated after 2 further washings, with centrifugation at 400 rpm at room temperature. The mononuclear cells thus obtained were washed 3 times with PBS, centrifuged for 10 minutes at 400 rpm, at 20° C. with brakes, and resuspended in RPMI 1640.
# In most LLC cases, the percentage of leukemic B cells was higher than 85% with respect to all mononuclear cells from peripheral blood.
# as §4
# [5] = system: hepatocarcinoma (HepG2) cells; experiment: Proapoptotic effect by flow cytofluorometry, HepG2 cells; format: cell-based; conditions: Homo sapiens, 24 hours incubation, three experiments in triplicate, read-out: IC50 ± S.D. (concentration required to cause 50% apoptosis), HepG2
# Text: as §1, §2, §3, §4
# [6] = system: breast cancer and multiple myeloma cells; conditions: cited from earlier work
SMILES,IC50 [1],IC50 [2],IC50 [3],IC50 [4],IC50 [5],"IC50 ([6]; breast cancer and multiple myeloma cells, articles of D. Ju et al., read-out: induction of caspase-dependent apoptosis (IC50 values))","cytotoxic effects of dyclonine alone ([6]; in vitro, alone without MG132 or bortezomib)"
"CCCCCCOc1ccc(C(=O)CCN2CCOCC2)cc1 [Compound 1, 1-(4-(hexyloxy)phenyl)-3-morpholinopropan-1-one]",1610 ± 80 nM,1850 ± 90 nM,1580 ± 70 nM,1610 ± 100 nM,1670 ± 150 nM,,
"CCCCCCCOc1ccc(C(=O)CCN2CCOCC2)cc1 [Compound 2, 1-(4-(heptyloxy)phenyl)-3-morpholinopropan-1-one]",1610 ± 70 nM,1640 ± 90 nM,1580 ± 100 nM,1620 ± 150 nM,1550 ± 130 nM,,
"CCCCCCOc1ccc(C(=O)CCN2CCCCC2)cc1 [Compound 3, 1-(4-(hexyloxy)phenyl)-3-(piperidin-1-yl)propan-1-one]",2600 ± 100 nM,3000 ± 170 nM,2750 ± 90 nM,2530 ± 150 nM,3070 ± 90 nM,,
"CCCCCCCOc1ccc(C(=O)CCN2CCCCC2)cc1 [Compound 4, 1-(4-(heptyloxy)phenyl)-3-(piperidin-1-yl)propan-1-one]",3010 ± 150 nM,2930 ± 80 nM,2780 ± 130 nM,3030 ± 70 nM,3000 ± 150 nM,,
"CCCCCCCOc1ccc(C(=O)CCN2CCN(C)CC2)cc1 [Compound 5, 1-(4-(heptyloxy)phenyl)-3-(4-methylpiperazin-1-yl)propan-1-one]",1480 ± 90 nM,1550 ± 100 nM,1610 ± 80 nM,1450 ± 60 nM,1600 ± 50 nM,,
"CCCCCSc1ccc(C(=O)CCN2CCOCC2)cc1 [Compound 6, 3-morpholino-1-(4-(pentylthio)phenyl)propan-1-one]",8000 ± 70 nM,8200 ± 100 nM,8250 ± 120 nM,8500 ± 80 nM,8000 ± 100 nM,,
"CCCCCCSc1ccc(C(=O)CCN2CCOCC2)cc1 [Compound 7, 1-(4-(hexylthio)phenyl)-3-morpholinopropan-1-one]",500 ± 200 nM,530 ± 90 nM,560 ± 200 nM,500 ± 200 nM,490 ± 110 nM,,
"CCCCCCCSc1ccc(C(=O)CCN2CCOCC2)cc1 [Compound 8, 1-(4-(heptylthio)phenyl)-3-morpholinopropan-1-one]",660 ± 120 nM,600 ± 50 nM,630 ± 80 nM,550 ± 90 nM,570 ± 80 nM,,
"CCCCCSc1ccc(C(=O)CCN2CCCCC2)cc1 [Compound 9, 1-(4-(pentylthio)phenyl)-3-(piperidin-1-yl)propan-1-one]",1800 ± 60 nM,1850 ± 140 nM,1730 ± 90 nM,1750 ± 40 nM,1660 ± 100 nM,,
"CCCCCCSc1ccc(C(=O)CCN2CCCCC2)cc1 [Compound 10, 1-(4-(hexylthio)phenyl)-3-(piperidin-1-yl)propan-1-one]",1800 ± 90 nM,1670 ± 50 nM,1800 ± 110 nM,1870 ± 70 nM,1700 ± 50 nM,,
"CCCCCCCSc1ccc(C(=O)CCN2CCCCC2)cc1 [Compound 11, 1-(4-(heptylthio)phenyl)-3-(piperidin-1-yl)propan-1-one]",560 ± 60 nM,540 ± 90 nM,490 ± 70 nM,500 ± 40 nM,590 ± 10 nM,,
"CCCCCSc1ccc(C(=O)CCN2CCN(C)CC2)cc1 [Compound 12, 3-(4-methylpiperazin-1-yl)-1-(4-(pentylthio)phenyl)propan-1-one]",11850 ± 70 nM,13170 ± 120 nM,14540 ± 120 nM,12200 ± 110 nM,12950 ± 50 nM,,
"CCCCCCSc1ccc(C(=O)CCN2CCN(C)CC2)cc1 [Compound 13, 1-(4-(hexylthio)phenyl)-3-(4-methylpiperazin-1-yl)propan-1-one]",650 ± 10 nM,670 ± 90 nM,600 ± 120 nM,650 ± 10 nM,590 ± 60 nM,,
"CCCCCCCSc1ccc(C(=O)CCN2CCN(C)CC2)cc1 [Compound 14, 1-(4-(heptylthio)phenyl)-3-(4-methylpiperazin-1-yl)propan-1-one]",470 ± 100 nM,450 ± 70 nM,520 ± 100 nM,440 ± 60 nM,500 ± 90 nM,,
"CCCCC[Se]c1ccc(C(=O)CCN2CCOCC2)cc1 [Compound 15, 3-morpholino-1-(4-(pentylselenyl)phenyl)propan-1-one]",13900 ± 140 nM,15710 ± 130 nM,12200 ± 80 nM,14200 ± 170 nM,11110 ± 70 nM,,
"CCCCCC[Se]c1ccc(C(=O)CCN2CCOCC2)cc1 [Compound 16, 1-(4-(hexylselenyl)phenyl)-3-morpholinopropan-1-one]",2580 ± 90 nM,2470 ± 60 nM,2600 ± 100 nM,2530 ± 90 nM,2620 ± 80 nM,,
"CCCCCCC[Se]c1ccc(C(=O)CCN2CCOCC2)cc1 [Compound 17, 1-(4-(heptylselenyl)phenyl)-3-morpholinopropan-1-one]",550 ± 70 nM,500 ± 60 nM,500 ± 100 nM,550 ± 40 nM,600 ± 70 nM,,
"CCCCC[Se]c1ccc(C(=O)CCN2CCCCC2)cc1 [Compound 18, 1-(4-(pentylselenyl)phenyl)-3-(piperidin-1-yl)propan-1-one]",7900 ± 100 nM,8000 ± 100 nM,8300 ± 80 nM,8500 ± 150 nM,7500 ± 150 nM,,
"CCCCCC[Se]c1ccc(C(=O)CCN2CCCCC2)cc1 [Compound 19, 1-(4-(hexylselenyl)phenyl)-3-(piperidin-1-yl)propan-1-one]",13010 ± 120 nM,11650 ± 60 nM,11980 ± 110 nM,10100 ± 80 nM,12480 ± 120 nM,,
"CCCCCCC[Se]c1ccc(C(=O)CCN2CCCCC2)cc1 [Compound 20, 1-(4-(heptylselenyl)phenyl)-3-(piperidin-1-yl)propan-1-one]",1750 ± 100 nM,1680 ± 130 nM,1730 ± 90 nM,1700 ± 50 nM,1740 ± 50 nM,,
"CCCCC[Se]c1ccc(C(=O)CCN2CCN(C)CC2)cc1 [Compound 21, 3-(4-methylpiperazin-1-yl)-1-(4-(pentylselenyl)phenyl)propan-1-one]",14230 ± 140 nM,13880 ± 130 nM,13600 ± 90 nM,14160 ± 90 nM,15570 ± 30 nM,,
"CCCCCC[Se]c1ccc(C(=O)CCN2CCN(C)CC2)cc1 [Compound 22, 1-(4-(hexylselenyl)phenyl)-3-(4-methylpiperazin-1-yl)propan-1-one]",8100 ± 70 nM,8200 ± 70 nM,8000 ± 60 nM,8150 ± 70 nM,8100 ± 100 nM,,
"CCCCCCC[Se]c1ccc(C(=O)CCN2CCN(C)CC2)cc1 [Compound 23, 1-(4-(heptylselenyl)phenyl)-3-(4-methylpiperazin-1-yl)propan-1-one]",1700 ± 90 nM,1750 ± 90 nM,1690 ± 80 nM,1770 ± 50 nM,1700 ± 50 nM,,
"CCCCCCCc1ccc(C(=O)CCN2CCOCC2)cc1 [Compound 24, 1-(4-heptylphenyl)-3-morpholinopropan-1-one]",550 ± 80 nM,500 ± 170 nM,500 ± 65 nM,500 ± 150 nM,500 ± 80 nM,,
"CCCCCCCc1ccc(C(=O)CCN2CCCCC2)cc1 [Compound 25, 1-(4-heptylphenyl)-3-(piperidin-1-yl)propan-1-one]",1650 ± 750 nM,1600 ± 100 nM,1500 ± 100 nM,1500 ± 80 nM,1550 ± 90 nM,,
"CCCCCCCc1ccc(C(=O)CCN2CCN(C)CC2)cc1 [Compound 26, 1-(4-heptylphenyl)-3-(4-methylpiperazin-1-yl)propan-1-one]",900 ± 50 nM,750 ± 130 nM,950 ± 60 nM,850 ± 60 nM,800 ± 70 nM,,
CCCCOc1ccc(C(=O)CCN2CCCCC2)cc1 [dyclonine],,,,,,15000 to 30000 nM,very limited cytotoxic effects
